Measurements taken from BindingDB's records for doi:10.1021/jm020335m (Abbott Laboratories, 2003).
pEC50: −log10 of the molar value.

Legend:
[1] = Inhibition of concanavalin A stimulated T-cell proliferation in human PBMCs
[2] = Inhibition of concanavalin A stimulated rat splenocyte proliferation

Row | pEC50 [1] | pEC50 [2] | SMILES
1 | < 6.00 | 7.05 | C=CCC1Oc2cccc(C=C)c2-c2ccc3c(c21)C(C)=CC(C)(C)N3 (configuration not stated) [5-Allyl-2,2,4-trimethyl-10-vinyl-2,5-dihydro-1H-6-oxa-1-aza-chrysene]
2 | 6.11 | 7.32 | C=CCC1Oc2cccc(OC)c2-c2ccc3c(c21)C(C)=CC(C)(C)N3 (configuration not stated) [5-Allyl-10-methoxy-2,2,4-trimethyl-2,5-dihydro-1H-6-oxa-1-aza-chrysene]
3 | 6.25 | 7.07 | C=CCC1Oc2cccc(OC(F)F)c2-c2ccc3c(c21)C(C)=CC(C)(C)N3 (configuration not stated) [5-Allyl-10-difluoromethoxy-2,2,4-trimethyl-2,5-dihydro-1H-6-oxa-1-aza-chrysene]

The remaining lines, values behind:

Row | SMILES | pEC50 [1] | pEC50 [2]
4 | C=CCC1Oc2cccc(NC)c2-c2ccc3c(c21)C(C)=CC(C)(C)N3 (configuration not stated) [(5-Allyl-2,2,4-trimethyl-2,5-dihydro-1H-6-oxa-1-aza-chrysen-10-yl)-methyl-amine] | 6.38 | 7.32
5 | C=CCC1Oc2cccc(Cl)c2-c2ccc3c(c21)C(C)=CC(C)(C)N3 (configuration not stated) [5-Allyl-10-chloro-2,2,4-trimethyl-2,5-dihydro-1H-6-oxa-1-aza-chrysene] | 6.36 | < 6.00
6 | C=CCC1Oc2ccc(O)c(OC)c2-c2ccc3c(c21)C(C)=CC(C)(C)N3 (configuration not stated) [5-Allyl-10-methoxy-2,2,4-trimethyl-2,5-dihydro-1H-6-oxa-1-aza-chrysen-9-ol] | 6.84 | 7.11
